US10688119B2, “Inhibitors of PCSK9 for treatment of lipoprotein metabolism disorders” (Aarhus Universitet, priority 2015, dated 2020)
“Also recorded” adds a separate entry of the source. Read-outs that look alike come from different tables or passages of the source.

Assays:
PCSK9 = PCSK9 (Homo sapiens, UniProt Q8NBP7); experiment: Microscale Thermophoresis (MST) equilibrium binding to PCSK9; conditions: 100 nM labelled PCSK9, PBS+0.05% Tween-20; read-out: KD (affinity for PCSK9, MST)
Method: PCSK9 was labeled using the MO-L003 Monolith Blue-NHS labeling kit (NanoTemper Technologies) and a labeling efficiency of 1:1 molar ratio of protein to dye was achieved. PCSK9 was applied at a final concentration of 100 nM. […] MST measurements were performed in standard-treated capillaries (NanoTemper Technologies) on a Monolith NT.115 instrument (NanoTemper Technologies) using 20% LED and 80% MST power. Laser on and off times were 5 s and 35 s, respectively. Negative controls were performed using 100 nM of labelled PCSK9 in MST buffer in all 16 capillaries under the same conditions as mentioned above. […] For each binding partner, the sigmoidal dose-response curves were fitted with GraphPad Prism 6 to yield an average KD value.

LDLR in liver = experiment: liver LDLR levels in mice after intravenous PCSK9 (Western blot); assay type: in vivo, mice (BALB6/cJRj); conditions: for liver LDLR level / PCSK9 induced degradation of LDLR in vivo: 1 hour after PCSK9 10 μg, heparin 50 U or suramin 300 μg co-injected, heparinase I 30 U infused before
Method: To test the effect of enzymatic removal of heparan sulfate GAGs on PCSK9 activity in vivo 10-12 week-old male BALB6/cJRj mice were infused with heparinase I (30 U) administered through a tail vein catheter 5 min prior injection of PCSK9 (10 μg). In control mice the heparinase injection and/or the PCSK9 injection were replaced with an injection of 0.9% saline. During heparinase infusion, mice were lightly anaesthetized with isoflurane continuously administered through a mask.
Mice (BALB6/cJRj) were subjected to a single intravenous administration (tail vein) of 10 μg human recombinant PCSK9 alone or in combination with heparin (50 U). One hour post injection mice were sacrificed and liver tissues were collected.

HepG2 cells = experiment: uptake of Bodipy-labelled LDL particles in HepG2 cells; assay type: cell-based, human; conditions: suramin 200 μg/ml overnight, then 4 hours 10 ng/ml Bodipy LDL
Method: FIG. 12: Bar graphs showing the relative fluorescence signal in HepG2 cells after overnight incubation with suramin (200 μg/ml) following 4 hours incubation with 10 ng/ml LDL particles labeled with fluorescence dye Bodipy.

apoE−/− mice = conditions: 4-week treatment, cited from earlier work
J774 macrophages = system: J774 macrophages; parameters: dose or concentration left out as unconfirmed; conditions: cited from earlier work
LDLR in HepG2 cells [1] = experiment: LDLR levels in HepG2 cells by Western blot/densitometry (PCSK9 induced LDLR degradation)
Method: (§3) Purified PCSK9 variants were tested in a cell assay to test their ability to induce degradation of LDLR compared to wild-type PCSK9. Induction of LDLR degradation was analyzed by incubation of HepG2 cells with wild type PCSK9 (WT) or the above PCSK9 mutants and LDLR levels were assessed by Western blotting. HepG2 cells were seeded at a density 250.000 cells per well in 12-well plates. […] Cells were harvested and lysed following 18 hours incubation and LDLR levels were assessed by Western blotting and quantification by densitometry.
The PCSK9 inhibitory effect of overnight incubation with suramin (0-200 μg/ml) was tested in HepG2 cells (FIG. 9 A-B).

[2] = heparin affinity chromatography of PCSK9 and variants; assay type: binding; conditions: conditioned media, Heparin Sepharose CL-6B beads
Method: Purified PCSK9 was loaded onto a 5 ml HiTrap Heparin HP column (GE Healthcare) in PBS. The column was connected to an Äkta Prime and washed with 5 column volumes of 10 mM NaH2PO4 (pH 7.4). PCSK9 was eluted using a linear gradient of 10 mM NaH2PO4 (pH 7.4) and 2 M NaCl and fractions were analyzed by SDS-PAGE. Based on the measured conductivity, the elution profile was transformed to a function of NaCl concentration using the transformation coefficient 0.065 mS/mM NaCl. PCSK9 was retained on the heparin column and eluted at a NaCl concentration of approximately 500 mM (FIG. 2E), indicating a strong and highly specific interaction with heparin.
In a different experiment, conditioned media from HepG2 cells were incubated with Heparin Sepharose CL-6B beads (GE Healthcare) in 10 mM NaH2PO4 (binding buffer). Following overnight incubation on a rotor at 4⊐ C, beads were washed in binding buffer before batch elution of heparin bound proteins in increasing concentration of NaCl. PCSK9 in input, flow through, and elution fractions were evaluated by Western blotting.
Conditioned media from CHO cells transfected with PCSK9 variants of interest were incubated with Heparin Sepharose CL-6B beads (GE Healthcare) in 10 mM NaH2PO4 (binding buffer). Following overnight incubation on a rotor at 4° C., beads were washed in binding buffer before batch elution of heparin bound proteins in increasing concentration of NaCl. PCSK9 in input, flow through, and elution fractions were evaluated by Western blotting.

LDLR in HepG2 cells [3] = experiment: LDLR degradation in HepG2 cells induced by PCSK9 WT or mutant; assay type: cell-based, human; conditions: 10 nM PCSK9, 18 hours
Method: as §3

[4] = patients with elevated serum cholesterol, oral or subcutaneous Pentosan-polysulfate
Method: The patient receives subcutaneous injections of 25-500 mg of the composition at intervals of 1-28 days.
A patient with elevated LDL cholesterol is prescribed a statin treatment. […] The patient is then prescribed a treatment with subcutaneous injections of 25-500 mg of a composition comprising a humanized antibody directed against the HSPG binding site in human PCSK9. The injections take place at intervals of 1-28 days.
A patient with elevated LDL cholesterol levels is prescribed administration of a small molecule compound that is designed to block the HSPG binding site in human PCSK9. The compound is administered orally at a dosis of 0.1-30 mg/kg.
In addition to the statin, the patient is administered a compound inhibiting binding of HSPGs to PCSK9. The administration occurs weekly and with a low dose (25-150 mg) of the compound in combination with statins.
Cholesterol levels are then measured.

[5] = in vivo; cited from earlier work
[6] = target: T1, R93R96R97R104R105H139 PCSK9 mutant and variants (Homo sapiens, UniProt Q8NBP7, H139A/R104A/R105A/R93A/R96A/R97A); experiment: immunoprecipitation of 35S-mutant PCSK9 and PCSK9 variants; assay type: binding; conditions: 500 μl conditioned hybridoma media
T1 construct: expressed in transfected cells
Method: (§1) Western blot of GAPDH is shown as loading control. (B) Western Blot showing LDLR levels in liver of mice 1 hour afterintravenous administration of 10 μg PCSK9 alone or in combination with 50 U Heparin. 50 μg membrane preparations were loaded. As control is shown Western Blot for sortilin, a PCSK9 receptor previously shown not to be target of PCSK9 induced degradation. (C) Quantification of B) Bands were quantified by densitometry and dot plot show the individual level of each sample in percent of vehicle (0.9% NaCl) injected controls with mean values and SEM. […] (D) Autoradiography (16 h exposure) showing immunoprecipitation of native human ^35S labeled PCSK9 by serum (1 μl) from three rats immunized with DNA encoding rat PCSK9 with human HSPG binding domain. As negative controls were used preimmune serum from the animals. (E) Western Blot showing LDLR in HepG2 cells after overnight incubation with preimmune or immune IgG (1 μg/ml). […] (F) Autoradiography (16 h exposure) showing immunoprecipitation of human ^35S-PCSK9 by 24 individual mAbs (500 μl conditioned hybridoma media) selected in ELISA screening performed by Aldevron. […] (G) Bar graphs showing LDLR levels (average of 2-4 experiments with SEM) in HepG2 cells incubated with mAbs (1:10 dilution of conditioned hybridoma media) as analysed by Western Blot. Twelve individual mAb clones give an approximately two-fold increase LDLR. (H) Autoradiography (16 h exposure) showing immunoprecipitation of human ^35S-mutant PCSK9 (with R93R96R97R104R105H139 mutated to alanine residues) by 12 individual mAbs (500 μl conditioned hybridoma media) all showing PCSK9 inhibitory effect. As control was used a polyclonal antibody (pAb, AF3888 from R&D systems). […] As control was used R&D Systems AF3888 (pAb).
(§2) These 12 clones were tested to see whether they can bind an R93R96R97R104R105H139 PCSK9 mutant (FIG. 8H).

[7] = system: R93R96R97R104R105H139 PCSK9 mutant and variants; experiment: as above; assay type: binding, human; conditions: WT, R96R97, R104R105, R93R96R97H139, R93R96R97R104R105H139
Method: as §1, §2

[8] = system: cell surface PCSK9 on HepG2 cells; experiment: surface PCSK9 immunostaining of non-permeabilized HepG2 cells stably expressing PCSK9; assay type: cell-based, human; conditions: heparinase I 0.0002 UN/ml, 1 h
Method: We speculated that HSPG might be involved in the capture of PCSK9. Thus, we treated human hepatocyte-derived HepG2 cells stably expressing PCSK9 with heparinase I. The enzyme heparinase I cleaves heparan sulfate GAG chains at the 1,4 O-linkage between uronic acid and D-glucosamine, thereby removing cell surface heparan sulfate chains.
HepG2 cells stably transfected with PCSK9 were seeded at 50.000 cells per coverslip and incubated overnight before addition of heparinase I (Sigma Aldrich/H2519) in PBS (0.0002 UN/ml) or PBS alone. Cells were incubated for 1 h. at 37⊐ C, before fixation in 4% paraformaldehyd and immunostaining of non-permeabilized cells with primary and secondary antibodies. Nuclei were visualized with Hoechst dye (Sigma Aldrich). Images were acquired on a Zeiss LSM780.

PCSK9, sequence (Q8NBP7 153-692): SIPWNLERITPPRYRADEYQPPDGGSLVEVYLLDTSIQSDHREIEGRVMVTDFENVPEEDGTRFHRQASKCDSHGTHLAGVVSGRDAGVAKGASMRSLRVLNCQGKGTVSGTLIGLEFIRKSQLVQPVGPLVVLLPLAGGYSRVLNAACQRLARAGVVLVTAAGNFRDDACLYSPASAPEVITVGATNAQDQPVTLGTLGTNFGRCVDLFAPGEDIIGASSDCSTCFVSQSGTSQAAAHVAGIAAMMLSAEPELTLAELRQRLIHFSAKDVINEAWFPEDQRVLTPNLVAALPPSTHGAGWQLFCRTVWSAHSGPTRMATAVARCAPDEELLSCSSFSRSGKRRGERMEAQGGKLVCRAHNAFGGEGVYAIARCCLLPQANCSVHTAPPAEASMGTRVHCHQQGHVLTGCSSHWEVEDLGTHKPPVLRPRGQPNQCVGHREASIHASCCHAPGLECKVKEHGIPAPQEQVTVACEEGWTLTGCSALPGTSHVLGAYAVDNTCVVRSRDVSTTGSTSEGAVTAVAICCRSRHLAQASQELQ

## Cc1ccc(C(=O)Nc2ccc(S(=O)(=O)O)c3cc(S(=O)(=O)O)cc(S(=O)(=O)O)c23)cc1NC(=O)c1cccc(NC(=O)Nc2cccc(C(=O)Nc3cc(C(=O)Nc4ccc(S(=O)(=O)O)c5cc(S(=O)(=O)O)cc(S(=O)(=O)O)c45)ccc3C)c2)c1 [suramin]
PCSK9
  Kd: 190 µM
LDLR in liver
  liver LDLR level / PCSK9 induced degradation of LDLR in vivo: significantly higher level of LDLR
HepG2 cells
  uptake of fluorescently labelled LDL: increased cellular uptake of fluorescently labelled LDL particles; also recorded: increases the uptake of LDL two-fold
apoE−/− mice; suramin 50 and PPADS 25 mg·kg-1·day-1, listed as Suramin
  plaque size: reduce plaque size
apoE−/− mice; suramin 50 and PPADS 25 mg·kg-1·day-1
  plaque size: reduces plaque size
J774 macrophages
  block of UDP effect on iNOS and interleukin-6: blocked
LDLR in HepG2 cells [1]; 100 μM suramin vs mevastatin and simvastatin, 24 and 48 hours
  LDLR level compared with statins: higher level of LDLR that cells incubated with statins
LDLR in HepG2 cells [1]; suramin 200 μg/ml, overnight
  LDLR level up regulated: 15 times

## WT PCSK9: wild type human PCSK9 (SEQ ID NO: 1)
LDLR in liver; 1 hour after intravenous 10 μg PCSK9 alone or with 50 U Heparin, n=7 mice/group
  LDLR level in liver in percent of vehicle injected controls: 24.0±4.04%
[2]
  binding to heparin (affinity chromatography): bound heparin Sepharose
LDLR in HepG2 cells [3]
  LDLR levels in HepG2 cells incubated with PCSK9 variant: significantly lower levels of LDLR

## pentosan [pentosan sulfate]
PCSK9
  Kd: 381 µM
[4]
  serum cholesterol levels: decreased serum cholesterol levels
[5]
  median time of absorption from the digestive tract after an oral dose: 2 h
LDLR in HepG2 cells [1]; dose-dependent, HepG2 cells
  plateau of cellular LDLR compared to vehicle control: around 400%

B1: mAb 5E11: rat monoclonal antibody against the HSPG binding domain; VH SEQ ID NO: 7, VK SEQ ID NO: 5 (antibody, V domains shown)
VH: EVQLQESGPGLVKPSQSLSLTCSVTGYTITSGYDWSWIRRFPGNTMEWMGDISYSGSTNYNPSLKSRVSITRDTSKNQFFLQLNSVTTGDTATYYCAKLPGWGQGTLVTVSS
VL: DVVLTQTPVFLSVTLGDQTSISCRSSQSLEYSDGYTYLEWYLQKPGQSPQLLIYEVSNRFSGVPDRFIGSGSGTDFTLKISRVEPEDLGVYYCFQGTHDPLTFGSGTKLEIK
[6]
  binding of R93R96R97R104R105H139 PCSK9 mutant (immunoprecipitation): not able to bind this mutant
[7]
  immunoprecipitation of 35S-PCSK9 WT and variants (epitope): recognize only WT PCSK9; also recorded: recognize epitopes within the HSPG binding domain
LDLR in HepG2 cells [1]; mAbs, 1:10 dilution of conditioned hybridoma media
  increase of cellular LDLR: approximately two fold

B2: heparinase I: enzyme that cleaves heparan sulfate GAG chains (Sigma Aldrich/H2519) (protein, UniProt Q05819 22-384, looked up)
Heparin lyase I: QQKKSGNIPYRVNVQADSAKQKAIIDNKWVAVGINKPYALQYDDKLRFNGKPSYRFELKAEDNSLEGYAAGETKGRTELSYSYATTNDFKKFPPSVYQNAQKLKTVYHYGKGICEQGSSRSYTFSVYIPSSFPDNATTIFAQWHGAPSRTLVATPEGEIKTLSIEEFLALYDRMIFKKNIAHDKVEKKDKDGKITYVAGKPNGWKVEQGGYPTLAFGFSKGYFYIKANSDRQWLTDKADRNNANPENSEVMKPYSSEYKTSTIAYKMPFAQFPKDCWITFDVAIDWTKYGKEANTILKPGKLDVMMTYTKNKKPQKAHIVNQQEILIGRNDDDGYYFKFGIYRVGNSTVPVTYNLSGYSETAR
LDLR in liver
  liver LDLR level / PCSK9 induced degradation of LDLR in vivo: completely protected LDLR from PCSK9-induced degradation; also recorded: completely inhibits PCSK9 induced degradation of LDLR
[8]
  intensity of surface PCSK9 staining: marked decrease in the intensity of surface PCSK9 staining
